{"source": "the supplement of paper PMC11208160"}
{"experiment": "recombinant barcode read abundance after kanamycin selection (control-corrected) (log10(CPM+1)); higher = more efficient recombination; sequences stand for … in AGTGCAGAGAAAATCGGCCAGTTTTCTCTGCCTGCAGTCCGCATGCCGT…AGATTTATGCAGCGGACTGCCTTTCTCCCAAAGTGATAAACCGGACAGTATCATGGACCGGTTTTCCCGGTAATCCGTATTTGCAAGGTTGGTTTCACT; site = the 11-nt target", "summary_of_the_method": "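This pooled E. coli screen matched targets with IS621 bridge RNA target-binding loops. Plating was done in duplicate on chloramphenicol/ampicillin LB agar as a control and on chloramphenicol/ampicillin/kanamycin plus 0.1 mM IPTG. Recombination efficiency reflects barcode counts at recombinant junctions as counts per million, averaged and control-corrected. The figures are log10(CPM+1).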"}
{"sequence": "CACTATCCTTGGGTTCTAACCTGTTGCCT (site CAATATCCTAG)", "recombinant barcode read abundance (log10)": 0.0585}
{"sequence": "CACTATCCTTGGGTTCTAACCTGTTGCCT (site CACTATCCTAG)", "recombinant barcode read abundance (log10)": 2.16}
{"sequence": "CACTATCCTTGGGTTCTAACCTGTTGCCT (site CAGTATCCTAG)", "recombinant barcode read abundance (log10)": 0.157}
{"sequence": "CACTATCCTTGGGTTCTAACCTGTTGCCT (site CATTATCCTAG)", "recombinant barcode read abundance (log10)": 0.0363}
{"sequence": "CACTCTGCTTGGGTTCTAACCTGTTGCCT (site CAATCTGCTAG)", "recombinant barcode read abundance (log10)": 0.617}
{"sequence": "CACTCTGCTTGGGTTCTAACCTGTTGCCT (site CACTCTGCTAG)", "recombinant barcode read abundance (log10)": 0.569}
{"sequence": "CACTCTGCTTGGGTTCTAACCTGTTGCCT (site CAGTCTGCTAG)", "recombinant barcode read abundance (log10)": 0.0477}
{"sequence": "CACTCTGCTTGGGTTCTAACCTGTTGCCT (site CATTCTGCTAG)", "recombinant barcode read abundance (log10)": 0.332}
{"sequence": "CACTGGGCTTGGGTTCTAACCTGTTGCAG (site CACTGGGCTCT)", "recombinant barcode read abundance (log10)": 0.791}
{"sequence": "CACTGGGCTTGGGTTCTAACCTGTTGCAG (site CACTTGGCTCT)", "recombinant barcode read abundance (log10)": 0.115}
{"sequence": "CACTGTTCTTGGGTTCTAACCTGTTGCCT (site CACTGATCTAG)", "recombinant barcode read abundance (log10)": 0.325}
{"sequence": "CACTGTTCTTGGGTTCTAACCTGTTGCCT (site CACTGCTCTAG)", "recombinant barcode read abundance (log10)": 0.0508}
{"sequence": "CACTGTTCTTGGGTTCTAACCTGTTGCCT (site CACTGGTCTAG)", "recombinant barcode read abundance (log10)": 0.069}
{"sequence": "CACTGTTCTTGGGTTCTAACCTGTTGCCT (site CACTGTTCTAG)", "recombinant barcode read abundance (log10)": 0.737}
{"sequence": "CACTTCCCTTGGGTTCTAACCTGTTGCAT (site CACTTCCCTAA)", "recombinant barcode read abundance (log10)": 0.0158}
{"sequence": "CACTTCCCTTGGGTTCTAACCTGTTGCAT (site CACTTCCCTAC)", "recombinant barcode read abundance (log10)": 0.106}
{"sequence": "CACTTCCCTTGGGTTCTAACCTGTTGCAT (site CACTTCCCTAG)", "recombinant barcode read abundance (log10)": 0.316}
{"sequence": "CACTTCCCTTGGGTTCTAACCTGTTGCAT (site CACTTCCCTAT)", "recombinant barcode read abundance (log10)": 1.93}
{"sequence": "CACTTCCCTTGGGTTCTAACCTGTTGCGA (site AGTGAAGCTGT)", "recombinant barcode read abundance (log10)": 0.222}
{"sequence": "CACTTCCCTTGGGTTCTAACCTGTTGCGA (site CACTTCCCTTC)", "recombinant barcode read abundance (log10)": 0.492}
{"sequence": "CACTTCCCTTGGGTTCTAACCTGTTGCGT (site CACTTCCCTAA)", "recombinant barcode read abundance (log10)": 0.0684}
{"sequence": "CACTTCCCTTGGGTTCTAACCTGTTGCGT (site CACTTCCCTAC)", "recombinant barcode read abundance (log10)": 2.4}
{"sequence": "CACTTCCCTTGGGTTCTAACCTGTTGCGT (site CACTTCCCTAG)", "recombinant barcode read abundance (log10)": 0.402}
{"sequence": "CACTTCCCTTGGGTTCTAACCTGTTGCGT (site CACTTCCCTAT)", "recombinant barcode read abundance (log10)": 1.5}
{"sequence": "CACTTGGCTTGGGTTCTAACCTGTTGCCT (site CACTTGACTAG)", "recombinant barcode read abundance (log10)": 0.0371}
{"sequence": "CACTTGGCTTGGGTTCTAACCTGTTGCCT (site CACTTGCCTAG)", "recombinant barcode read abundance (log10)": 0.366}
{"sequence": "CACTTGGCTTGGGTTCTAACCTGTTGCCT (site CACTTGGCTAG)", "recombinant barcode read abundance (log10)": 0.134}
{"sequence": "CACTTGGCTTGGGTTCTAACCTGTTGCCT (site CACTTGTCTAG)", "recombinant barcode read abundance (log10)": 0.0944}
{"sequence": "CAGAACACTTGGGTTCTAACCTGTTGCCT (site AAGAACACTAG)", "recombinant barcode read abundance (log10)": 0.0991}
{"sequence": "CAGAACACTTGGGTTCTAACCTGTTGCCT (site CAGAACACTAG)", "recombinant barcode read abundance (log10)": 1.94}
{"sequence": "CAGAACACTTGGGTTCTAACCTGTTGCCT (site GAGAACACTAG)", "recombinant barcode read abundance (log10)": 0.198}
{"sequence": "CAGAACACTTGGGTTCTAACCTGTTGCCT (site TAGAACACTAG)", "recombinant barcode read abundance (log10)": 0.171}
{"sequence": "CAGCCCTCTTGGGTTCTAACCTGTTGCCT (site CAGCCCTCTAG)", "recombinant barcode read abundance (log10)": 2.59}
{"sequence": "CAGCCCTCTTGGGTTCTAACCTGTTGCCT (site CCGCCCTCTAG)", "recombinant barcode read abundance (log10)": 0.883}
{"sequence": "CAGCCCTCTTGGGTTCTAACCTGTTGCCT (site CGGCCCTCTAG)", "recombinant barcode read abundance (log10)": 0.0354}
{"sequence": "CAGCCCTCTTGGGTTCTAACCTGTTGCCT (site CTGCCCTCTAG)", "recombinant barcode read abundance (log10)": 0.315}
{"sequence": "CAGCTACCTTGGGTTCTAACCTGTTGCCT (site CAGCTACCTAG)", "recombinant barcode read abundance (log10)": 1.73}
{"sequence": "CAGCTACCTTGGGTTCTAACCTGTTGCCT (site CCGCTACCTAG)", "recombinant barcode read abundance (log10)": 0.334}
{"sequence": "CAGCTACCTTGGGTTCTAACCTGTTGCCT (site CGGCTACCTAG)", "recombinant barcode read abundance (log10)": 0.226}
{"sequence": "CAGCTACCTTGGGTTCTAACCTGTTGCCT (site CTGCTACCTAG)", "recombinant barcode read abundance (log10)": 0.585}
{"sequence": "CAGGACTCTTGGGTTCTAACCTGTTGCTT (site CAGCACTCTTA)", "recombinant barcode read abundance (log10)": 0.0832}
{"sequence": "CAGGACTCTTGGGTTCTAACCTGTTGCTT (site CAGGACTCTAA)", "recombinant barcode read abundance (log10)": 2.85}
{"sequence": "CAGGCGGCTTGGGTTCTAACCTGTTGCCT (site CAGGCGACTAG)", "recombinant barcode read abundance (log10)": 0.117}
{"sequence": "CAGGCGGCTTGGGTTCTAACCTGTTGCCT (site CAGGCGCCTAG)", "recombinant barcode read abundance (log10)": 0.254}
{"sequence": "CAGGCGGCTTGGGTTCTAACCTGTTGCCT (site CAGGCGGCTAG)", "recombinant barcode read abundance (log10)": 0.829}
{"sequence": "CAGGCGGCTTGGGTTCTAACCTGTTGCCT (site CAGGCGTCTAG)", "recombinant barcode read abundance (log10)": 0.0685}
{"sequence": "CAGGGTCCTTGGGTTCTAACCTGTTGCGG (site CAGGGTCCTCC)", "recombinant barcode read abundance (log10)": 3.55}
{"sequence": "CAGGGTCCTTGGGTTCTAACCTGTTGCGG (site TAGGGTTCTCC)", "recombinant barcode read abundance (log10)": 0.0367}
{"sequence": "CAGTCAGCTTGGGTTCTAACCTGTTGCCT (site CAGTCAGCTAG)", "recombinant barcode read abundance (log10)": 1.16}
{"sequence": "CAGTCAGCTTGGGTTCTAACCTGTTGCCT (site GTAAGGACTCC)", "recombinant barcode read abundance (log10)": 0.0866}
{"sequence": "CAGTCCTCTTGGGTTCTAACCTGTTGCTG (site CAGTCCTCTCA)", "recombinant barcode read abundance (log10)": 2.23}
{"sequence": "CAGTCCTCTTGGGTTCTAACCTGTTGCTG (site CCGTCCTCTCA)", "recombinant barcode read abundance (log10)": 0.0321}
{"sequence": "CAGTGAACTTGGGTTCTAACCTGTTGCCT (site CAGTGAACTAG)", "recombinant barcode read abundance (log10)": 1.55}
{"sequence": "CAGTGAACTTGGGTTCTAACCTGTTGCCT (site CCGTGAACTAG)", "recombinant barcode read abundance (log10)": 0.181}
{"sequence": "CAGTGAACTTGGGTTCTAACCTGTTGCCT (site CGGTGAACTAG)", "recombinant barcode read abundance (log10)": 0.0595}
{"sequence": "CAGTGAACTTGGGTTCTAACCTGTTGCCT (site CTGTGAACTAG)", "recombinant barcode read abundance (log10)": 0.0273}
{"sequence": "CAGTGGACTTGGGTTCTAACCTGTTGCCT (site CAATGGACTAG)", "recombinant barcode read abundance (log10)": 0.961}
{"sequence": "CAGTGGACTTGGGTTCTAACCTGTTGCCT (site CACTGGACTAG)", "recombinant barcode read abundance (log10)": 0.101}
{"sequence": "CAGTGGACTTGGGTTCTAACCTGTTGCCT (site CAGTGGACTAG)", "recombinant barcode read abundance (log10)": 2.04}
{"sequence": "CAGTGGACTTGGGTTCTAACCTGTTGCCT (site CATTGGACTAG)", "recombinant barcode read abundance (log10)": 0.0477}
{"sequence": "CAGTTGTCTTGGGTTCTAACCTGTTGCCT (site AAGTTGTCTAC)", "recombinant barcode read abundance (log10)": 0.0187}
{"sequence": "CAGTTGTCTTGGGTTCTAACCTGTTGCCT (site CAGTTGTCTAG)", "recombinant barcode read abundance (log10)": 1.75}
{"sequence": "CATAATTCTTGGGTTCTAACCTGTTGCCT (site CATAATTCTAG)", "recombinant barcode read abundance (log10)": 0.445}
{"sequence": "CATAATTCTTGGGTTCTAACCTGTTGCCT (site CATCATTCTAG)", "recombinant barcode read abundance (log10)": 0}
{"sequence": "CATAATTCTTGGGTTCTAACCTGTTGCCT (site CATGATTCTAG)", "recombinant barcode read abundance (log10)": 0.0188}
{"sequence": "CATAATTCTTGGGTTCTAACCTGTTGCCT (site CATTATTCTAG)", "recombinant barcode read abundance (log10)": 0.0376}
